Experiment [1] addresses T1, NS3-NS4 (Hepatitis C virus genotype 1a, UniProt P27958). The experiment can be described thus: NS3-NS4 activity, IC50 (Example 37, Table 8). The class given is biochemical.
Experiment [2] addresses T1, NS3-NS4. As to the kind of experiment: cell-based. Particulars: EC50, NS3-NS4 activity.

The values that follow come from US20090155209A1, “NOVEL MACROCYCLIC INHIBITORS OF HEPATITIS C VIRUS REPLICATION” (priority 2007, published 2009).

Structures are written as SMILES.

T1 sequence (P27958 1027-1657): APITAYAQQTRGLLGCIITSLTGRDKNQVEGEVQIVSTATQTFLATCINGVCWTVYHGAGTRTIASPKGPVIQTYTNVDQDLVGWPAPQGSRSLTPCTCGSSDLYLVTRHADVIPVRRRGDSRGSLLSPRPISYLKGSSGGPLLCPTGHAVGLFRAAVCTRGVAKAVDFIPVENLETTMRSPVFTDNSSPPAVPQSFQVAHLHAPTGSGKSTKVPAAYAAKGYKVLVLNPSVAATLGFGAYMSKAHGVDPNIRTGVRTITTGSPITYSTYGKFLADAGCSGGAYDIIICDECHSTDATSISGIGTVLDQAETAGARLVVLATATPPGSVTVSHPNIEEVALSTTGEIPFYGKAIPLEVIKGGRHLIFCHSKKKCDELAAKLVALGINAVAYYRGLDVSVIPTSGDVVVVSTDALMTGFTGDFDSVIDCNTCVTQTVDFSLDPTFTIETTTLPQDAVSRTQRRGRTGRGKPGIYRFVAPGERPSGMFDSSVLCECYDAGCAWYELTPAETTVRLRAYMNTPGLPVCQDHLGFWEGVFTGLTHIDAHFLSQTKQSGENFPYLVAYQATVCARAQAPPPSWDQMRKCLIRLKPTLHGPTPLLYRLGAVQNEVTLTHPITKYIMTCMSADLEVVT
T1 sequence (P27958 1658-1711): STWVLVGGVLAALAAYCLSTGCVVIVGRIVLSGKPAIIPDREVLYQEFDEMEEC

Turning to `O=C1N[C@]2(C(=O)NS(=O)(=O)C3CC3)C[C@H]2/C=C\CCCCC[C@H](Nc2nc(-c3ccc(C(F)(F)F)cc3)cs2)C(=O)N2C[C@H](OC(=O)N3Cc4cccc(F)c4C3)C[C@@H]12` [Compound 216], the IC50 (usually the concentration needed to halve the response being measured) in experiment [1] is under 100 nM. In experiment [2], the EC50 (usually the concentration needed to bring the measured effect to its halfway point) is under 100 nM.
`O=C(N[C@H]1CCCCC/C=C\[C@@H]2C[C@@]2(C(=O)NS(=O)(=O)C2CC2)NC(=O)[C@@H]2C[C@@H](OC(=O)N3Cc4cccc(F)c4C3)CN2C1=O)OC1CCC1` [Compound 427]: the IC50 in experiment [1] was under 100 nM. Besides, the EC50 in experiment [2] is under 100 nM.
In the case of `COc1cccc(ONC(=O)[C@@]23C[C@H]2/C=C\CCCCC[C@H](NC(=O)OC(C)(C)C)C(=O)N2C[C@H](OC(=O)N4Cc5cccc(F)c5C4)C[C@H]2C(=O)N3)c1` [Compound 708], the IC50 in experiment [1] is under 100 nM. The molecule further came in with an EC50 in experiment [2] of 1000 to 10000 nM.
For `CCCS(=O)(=O)NC(=O)[C@@]12C[C@H]1CCCCCCC[C@H](NC(=O)OC(C)(C)C)C(=O)N1C[C@H](OC(=O)N3Cc4cccc(F)c4C3)C[C@H]1C(=O)N2` [Compound 655], in that order: under 100 nM and under 100 nM.
For `O=C(C[C@H]1CCCCC/C=C\[C@@H]2C[C@@]2(C(=O)NS(=O)(=O)C2CC2)NC(=O)[C@@H]2C[C@@H](OC(=O)N3Cc4cccc(F)c4C3)CN2C1=O)Oc1ccccc1` [Compound 419], in that order: under 100 nM and 100 to 1000 nM.
For `O=C1N[C@]2(C(=O)NS(=O)(=O)C3CC3)C[C@H]2/C=C\CCCCC[C@H](Nc2nc(-c3ccc(F)cc3)cs2)C(=O)N2C[C@H](Oc3nc(-c4ccccc4)nc4ccccc34)C[C@@H]12` [Compound 204, (2R,6S,13aS,14aR,16aS,Z)-N-(cyclopropylsulfonyl)-6-(4-(4-fluorophenyl)thiazol-2-ylamino)-5,16-dioxo-2-(2-phenylquinazolin-4-yloxy)-1,2,3,5,6,7,8,9,10,11,13a,14,14a,15,16,16a-hexadecahydrocyclopropa[e]pyrrolo[1,2-a][1,4]diazacyclopentadecine-14a-carboxamide], in that order: under 100 nM and under 100 nM.
Consider `O=C1N[C@]2(C(=O)NS(=O)(=O)C3CC3)C[C@H]2/C=C\CCCCC[C@H](NC(=O)C2(C(F)(F)F)CC2)C(=O)N2C[C@H](OC(=O)N3Cc4cccc(F)c4C3)C[C@@H]12` [Compound 403, (2R,6S,13aS,14aR,16aS,Z)-14a-(cyclopropylsulfonylcarbamoyl)-5,16-dioxo-6-(1-(trifluoromethyl)cyclopropanecarboxamido)-1,2,3,5,6,7,8,9,10,11,13a,14,14a,15,16,16a-hexadecahydrocyclopropa[e]pyrrolo[1,2-a][1,4]diazacyclopentadecin-2-yl 4-fluoroisoindoline-2-carboxylate], for which the IC50 in experiment [1] is under 100 nM. In experiment [2], the EC50 is under 100 nM.
The molecule `CC(C)(C)OC(=O)N[C@H]1CCCCC/C=C\[C@@H]2C[C@@]2(C(=O)NS(=O)(=O)Cc2ccc(Cl)c(Cl)c2)NC(=O)[C@@H]2C[C@@H](OC(=O)N3Cc4cccc(F)c4C3)CN2C1=O` [Compound 526] came in with an IC50 in experiment [1] of under 100 nM. In experiment [2], this molecule came in with an EC50 of 100 to 1000 nM.
For `CC(C)(C)OC(=O)N[C@H]1CCCCCCC[C@@H]2C[C@@]2(C(=O)NOc2ccc(-c3ccccc3)cc2)NC(=O)[C@@H]2C[C@@H](OC(=O)N3Cc4cccc(F)c4C3)CN2C1=O` [Compound 803], in that order: under 100 nM and 1000 to 10000 nM.
On the same counts, the results for `CC(C)(C)OC(=O)N[C@H]1CCCCC/C=C\[C@@H]2C[C@@]2(C(=O)NOCc2ccccc2)NC(=O)[C@@H]2C[C@@H](OC(=O)N3Cc4cccc(F)c4C3)CN2C1=O` [Compound 107] are under 100 nM and 1000 to 10000 nM.
On the same counts, the results for `CC(C)(C)OC(=O)N[C@H]1CCCCC/C=C\[C@@H]2C[C@@]2(C(=O)NS(=O)(=O)c2cc(F)ccc2F)NC(=O)[C@@H]2C[C@@H](OC(=O)N3Cc4cccc(F)c4C3)CN2C1=O` [Compound 307] are under 100 nM and under 100 nM.
Take `Cc1ccc(S(=O)(=O)NC(=O)[C@@]23C[C@H]2/C=C\CCCCC[C@H](NC(=O)OC(C)(C)C)C(=O)N2C[C@H](OC(=O)N4Cc5cccc(F)c5C4)C[C@H]2C(=O)N3)cc1Cl` [Compound 312]: the IC50 in experiment [1] was under 100 nM. In addition, in experiment [2], the EC50 is 100 to 1000 nM.
For `CC(C)(C)OC(=O)N[C@H]1CCCCC/C=C\[C@@H]2C[C@@]2(C(=O)NS(=O)(=O)c2cccc(F)c2)NC(=O)[C@@H]2C[C@@H](OC(=O)N3Cc4cccc(F)c4C3)CN2C1=O` [Compound 350], in that order: under 100 nM and under 100 nM.
For `CCc1ccc(S(=O)(=O)NC(=O)[C@@]23C[C@H]2/C=C\CCCCC[C@H](NC(=O)OC(C)(C)C)C(=O)N2C[C@H](OC(=O)N4Cc5cccc(F)c5C4)C[C@H]2C(=O)N3)cc1` [Compound 320], in that order: under 100 nM and under 100 nM.
On the same counts, the results for `CC(C)CC1(S(=O)(=O)NC(=O)[C@@]23C[C@H]2CCCCCCC[C@H](NC(=O)OC(C)(C)C)C(=O)N2C[C@H](OC(=O)N4Cc5cccc(F)c5C4)C[C@H]2C(=O)N3)CC1` [Compound 654] are under 100 nM and under 100 nM.
Turning to `CC(C)(C)OC(=O)N[C@H]1CCCCC/C=C\[C@@H]2C[C@@]2(C(=O)NS(=O)(=O)Cc2cccc(C(F)(F)F)c2)NC(=O)[C@@H]2C[C@@H](OC(=O)N3Cc4cccc(F)c4C3)CN2C1=O` [Compound 518], the IC50 in experiment [1] was under 100 nM. The molecule also came in with an EC50 in experiment [2] of 100 to 1000 nM.
For `CC(C)(C)OC(=O)N[C@H]1CCCCC/C=C\[C@@H]2C[C@@]2(C(=O)NOc2ccc(-c3ccccc3)cc2)NC(=O)[C@@H]2C[C@@H](OC(=O)N3Cc4cccc(F)c4C3)CN2C1=O` [Compound 710], in that order: under 100 nM and 1000 to 10000 nM.
On the same counts, the results for `CC(C)c1cnc(N[C@H]2CCCCC/C=C\[C@@H]3C[C@@]3(C(=O)NS(=O)(=O)C3CC3)NC(=O)[C@@H]3C[C@@H](OC(=O)N4Cc5cccc(F)c5C4)CN3C2=O)s1` [Compound 201, (2R,6S,13aS,14aR,16aS,Z)-14a-(cyclopropylsulfonylcarbamoyl)-6-(5-isopropylthiazol-2-ylamino)-5,16-dioxo-1,2,3,5,6,7,8,9,10,11,13a,14,14a,15,16,16a-hexadecahydrocyclopropa[e]pyrrolo[1,2-a][1,4]diazacyclopentadecin-2-yl 4-fluoroisoindoline-2-carboxylate] are under 100 nM and under 100 nM.
On the same counts, the results for `Cc1cccc(S(=O)(=O)NC(=O)[C@@]23C[C@H]2/C=C\CCCCC[C@H](NC(=O)OC(C)(C)C)C(=O)N2C[C@H](OC(=O)N4Cc5cccc(F)c5C4)C[C@H]2C(=O)N3)c1` [Compound 317] are under 100 nM and under 100 nM.
As to `CC(C)(C)OC(=O)N[C@H]1CCCCC[C@@H]2C[C@@H]2[C@@H]2C[C@@]2(C(=O)NS(=O)(=O)C2CC2)NC(=O)[C@@H]2C[C@@H](OC(=O)N3Cc4cccc(F)c4C3)CN2C1=O` [Compound 902], the IC50 in experiment [1] is under 100 nM. The same molecule gave an EC50 in experiment [2] of under 100 nM.
In the case of `O=C1N[C@]2(C(=O)NS(=O)(=O)C3CC3)C[C@H]2/C=C\CCCCC[C@H](Nc2nc(-c3cccnc3)cs2)C(=O)N2C[C@H](OC(=O)N3Cc4cccc(F)c4C3)C[C@@H]12` [Compound 214], in experiment [1], the IC50 is under 100 nM. This molecule gave an EC50 in experiment [2] of under 100 nM.
Take `CC(C)(C)OC(=O)N[C@H]1CCCCCCC[C@@H]2C[C@@]2(C(=O)NOc2ccc(F)cc2)NC(=O)[C@@H]2C[C@@H](OC(=O)N3Cc4cccc(F)c4C3)CN2C1=O` [Compound 811]: the IC50 in experiment [1] was under 100 nM. The EC50 in experiment [2] fell in the range of 1000 to 10000 nM.
For the molecule `O=C(N[C@H]1CCCCC/C=C\[C@@H]2C[C@@]2(C(=O)NS(=O)(=O)c2ccc(Cl)cc2)NC(=O)[C@@H]2C[C@@H](OC(=O)N3Cc4cccc(F)c4C3)CN2C1=O)OC1CCOC1` (some centres unmarked) [Compound 334], in experiment [1], the IC50 is under 100 nM. The molecule also gave an EC50 in experiment [2] of under 100 nM.
As for `CC(C)(C)OC(=O)N[C@H]1CCCCC/C=C\[C@@H]2C[C@@]2(C(=O)NS(=O)(=O)c2ccccc2Cl)NC(=O)[C@@H]2C[C@@H](OC(=O)N3Cc4cccc(F)c4C3)CN2C1=O` [Compound 332], the IC50 in experiment [1] is under 100 nM. In addition, in experiment [2], the EC50 was under 100 nM.
The molecule `CC(C)(C)OC(=O)N[C@H]1CCCCC/C=C\[C@@H]2C[C@@]2(C(=O)NS(=O)(=O)c2cccc(Cl)c2)NC(=O)[C@@H]2C[C@@H](OC(=O)N3Cc4cccc(F)c4C3)CN2C1=O` [Compound 353] returned an IC50 in experiment [1] of under 100 nM. The molecule also showed an EC50 in experiment [2] of under 100 nM.
As for `CC(C)(C)OC(=O)N[C@H]1CCCCC/C=C\[C@@H]2C[C@@]2(C(=O)NS(=O)(=O)c2c(F)cccc2F)NC(=O)[C@@H]2C[C@@H](OC(=O)N3Cc4ccccc4C3)CN2C1=O` [Compound 364], in experiment [1], the IC50 was under 100 nM. The molecule further came in with an EC50 in experiment [2] of 100 to 1000 nM.
On the same counts, the results for `O=C(N[C@H]1CCCCC/C=C\[C@@H]2C[C@@]2(C(=O)NS(=O)(=O)C2CC2)NC(=O)[C@@H]2C[C@@H](OC(=O)N3Cc4cccc(F)c4C3)CN2C1=O)OC(C1CC1)C1CC1` [Compound 428] are under 100 nM and 100 to 1000 nM.
Turning to `Cc1cc(C)cc(ONC(=O)[C@@]23C[C@H]2CCCCCCC[C@H](NC(=O)OC(C)(C)C)C(=O)N2C[C@H](OC(=O)N4Cc5cccc(F)c5C4)C[C@H]2C(=O)N3)c1` [Compound 807], in experiment [1], the IC50 was under 100 nM. The EC50 in experiment [2] lay within 1000 to 10000 nM.
For `O=C1N[C@]2(C(=O)NS(=O)(=O)C3CC3)C[C@H]2/C=C\CCCCC[C@H](Nc2nc(-c3ccncc3)cs2)C(=O)N2C[C@H](OC(=O)N3Cc4cccc(F)c4C3)C[C@@H]12` [Compound 210], in that order: under 100 nM and under 100 nM.
On the same counts, the results for `CC(C)(C)OC(=O)N[C@H]1CCCCC/C=C\[C@@H]2C[C@@]2(C(=O)NS(=O)(=O)c2c(F)cccc2F)NC(=O)[C@@H]2C[C@@H](OC(=O)N3CCc4ccccc4C3)CN2C1=O` [Compound 363] are under 100 nM and 1000 to 10000 nM.
For `O=C1NC2(C(=O)NS(=O)(=O)C3CC3)C[C@H]2/C=C\CCCCC[C@H](Nc2nc(-c3ccc(F)cc3)cs2)C(=O)N2C[C@H](OC(=O)N3Cc4cccc(F)c4C3)C[C@@H]12` (some centres unmarked) [Compound 224], the IC50 in experiment [1] is under 100 nM. This molecule came in with an EC50 in experiment [2] of under 100 nM.
